Source: paper PMC4364445 (Chemical Science, 2015)

Key:
[1] = test system: human intestinal microsomes (HIM); experiment: Biocolloid reactor bead LC-MS/MS DNA adduct quantitation, HIM; format: biochemical; details: 250 μM 2-AAF, 4 h; organ comparison
[2] = target: T1, cyt P450 1B1 supersomes (Homo sapiens, UniProt Q16678); experiment: ECL enzyme/DNA array DNA damage rate, cyt P450 1B1; format: biochemical; details: pH 7.4
T1 sequence (Q16678 1-543): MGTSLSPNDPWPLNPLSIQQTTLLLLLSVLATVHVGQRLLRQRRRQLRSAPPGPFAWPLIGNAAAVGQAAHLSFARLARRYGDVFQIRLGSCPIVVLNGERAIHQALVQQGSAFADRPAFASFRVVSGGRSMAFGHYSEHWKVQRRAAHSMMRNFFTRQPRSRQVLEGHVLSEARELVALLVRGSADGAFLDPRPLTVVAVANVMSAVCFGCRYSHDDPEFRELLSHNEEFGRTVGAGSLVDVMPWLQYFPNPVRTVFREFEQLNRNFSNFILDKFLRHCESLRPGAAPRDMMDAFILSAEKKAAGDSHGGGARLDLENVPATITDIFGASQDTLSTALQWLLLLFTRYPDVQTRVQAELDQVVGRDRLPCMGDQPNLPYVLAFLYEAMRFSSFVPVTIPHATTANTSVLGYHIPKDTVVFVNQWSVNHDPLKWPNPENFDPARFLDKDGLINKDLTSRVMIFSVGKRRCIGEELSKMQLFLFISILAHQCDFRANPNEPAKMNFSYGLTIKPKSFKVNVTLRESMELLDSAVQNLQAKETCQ

[3] = target: T2, cyt P450 1A2 supersomes (Homo sapiens, UniProt P05177); experiment: ECL enzyme/DNA array DNA damage rate, cyt P450 1A2; format: biochemical; details: 250 μM 2-AAF, pH 7.4; cyt P450 1A2 compared to cyt P450s 2A6, 3A5 and 1B1
T2 sequence (P05177 2-516 limits assumed): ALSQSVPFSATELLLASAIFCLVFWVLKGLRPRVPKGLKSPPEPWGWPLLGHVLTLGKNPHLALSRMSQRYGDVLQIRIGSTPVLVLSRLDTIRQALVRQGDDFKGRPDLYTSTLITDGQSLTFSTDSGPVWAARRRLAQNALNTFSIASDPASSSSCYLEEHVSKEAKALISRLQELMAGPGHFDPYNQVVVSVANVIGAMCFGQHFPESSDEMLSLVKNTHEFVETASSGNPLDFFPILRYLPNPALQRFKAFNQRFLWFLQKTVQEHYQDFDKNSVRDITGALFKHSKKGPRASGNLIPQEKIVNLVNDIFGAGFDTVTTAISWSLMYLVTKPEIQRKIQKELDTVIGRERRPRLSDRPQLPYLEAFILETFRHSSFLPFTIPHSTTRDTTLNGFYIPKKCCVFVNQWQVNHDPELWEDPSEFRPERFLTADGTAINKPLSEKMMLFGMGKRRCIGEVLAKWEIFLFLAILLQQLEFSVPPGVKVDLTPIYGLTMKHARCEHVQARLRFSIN

[4] = test system: rodent; details: chronic dietary exposure, ref [40],[49]; cited from earlier work
[5] = test system: male rats; details: intraperitoneal, ref [60]; cited from earlier work
[6] = test system: mice; details: dietary administration, ref [61]; cited from earlier work
[7] = test system: human organ tissue enzymes (liver, lung, intestine, kidney microsomes with or without cytosol); experiment: ECL enzyme/DNA array DNA damage rate, comparison across organ enzymes; details: pH 7.4
[8] = test system: human organ microsomes, cytosols and cyt P450 supersomes; experiment: Biocolloid reactor bead LC-MS/MS DNA adducts, comparison across enzyme sources; details: 250 μM 2-AAF, 4 h; all enzyme sources with cytosol
[9] = test system: cyt P450 supersomes (3A4, 2A6, 3A5) with or without cytosol; experiment: ECL enzyme/DNA array DNA damage rate, comparison across cyt P450 supersomes; format: biochemical, human; details: 1 mM styrene, pH 7.4; supersomes + cytosol vs supersomes

SMILES | total levels of adducts 8 and 9 (LC-MS/MS) [1] | DNA damage-related activity (ECL array) ([2]; 250 μM 2-AAF) | relative DNA damage rate (ECL array) [3] | formation of tumors, organ order [4] | DNA adduct levels, liver vs bladder [5] | DNA adduct levels, bladder vs liver [6] | order of DNA damage rates across organs (ECL array) ([7]; 250 μM 2-AAF, microsomes with cytosolic enzymes included) | adduct 9 in the presence of cytosol enzymes (LC-MS/MS) [8] | DNA damage activity (ECL array) ([2]; 1 mM styrene) | decrease of rate of DNA damage when using cyt P450 supersomes and cytosol (ECL array) [9] | change of rate of DNA damage upon using microsomes and cytosol (ECL array) ([7]; 1 mM styrene, microsomes + cytosol vs microsomes)
CC(=O)Nc1ccc2c(c1)Cc1ccccc1-2 [2-AAF, 2-acetylaminofluorene] | highest for intestine | small | significantly larger rate of DNA damage | liver > intestine > kidney | higher levels of DNA adduct levels in liver than in bladder | higher DNA adduct levels in bladder than in liver | kidney > intestine > lung > liver | not detected |  |  | 
C=Cc1ccccc1 [styrene] |  |  |  |  |  |  |  |  | low activity | 10 fold | halved
